The values that follow come from ChEMBL document CHEMBL1811900, “Sesquiterpene glycosides from Cosmospora joca” (J Nat Prod, 2011).

Active and inactive are the calls of the source. The rule behind the calls is not given here.

Data set [1] has as its system RAW264.7. Briefly: Antiinflammatory activity in mouse RAW264.7 cells assessed as inhibition of LPS-stimulated NO production at 100 uM after 24 hrs by spectrophotometry. The format is functional.
Data set [2] relates to RAW264.7. Put plainly: Cytotoxicity against mouse RAW264.7 cells by Alamar blue assay. The format is cell-based. Background: The colour change of resazurin is a common sign of viable cells or microbes.
Data set [3] concerns RAW264.7. Briefly: Antiinflammatory activity in mouse RAW264.7 cells assessed as inhibition of LPS-stimulated NO production at 0.1 to 100 uM after 24 hrs by spectrophotometry. The format is functional, cell-based.

Regarding `CC(=O)OC(CC(=O)C(C)CCC=C(C)C)/C(C)=C/CO[C@@H]([C@H](O)[C@H](O)CO)[C@H](O)CO` (stereo partly drawn), the inhibition result with RAW264.7 [1] was “Active”.

Take `CC(=O)O[C@@H](C[C@H](O[C@@H]1O[C@H](CO)[C@@H](O)[C@H](O)[C@@H]1O)[C@](C)(O)CCC=C(C)C)/C(C)=C/CO[C@@H]([C@H](O)[C@H](O)CO)[C@H](O)COCC=C(C)C`: the inhibition entry in the data set on RAW264.7 [1] was “inactive”.

For `CCCCC/C=C\CCC(=O)O[C@@H]1[C@H](O[C@@H](C[C@H](OC(C)=O)/C(C)=C/CO[C@@H]([C@H](O)[C@H](O)CO)[C@H](O)CO)[C@](C)(O)CCC=C(C)C)O[C@H](CO)[C@@H](O)[C@@H]1O`, in the data set on RAW264.7 [1], the inhibition entry is “Active”.

Consider `CC(C)=CCC/C(C)=C/CC/C(C)=C/CO[C@@H]([C@H](O)[C@H](O)CO)[C@H](O)CO` [COSMOSPORASIDE A], for which the Imax in the data set with RAW264.7 [1] stood at 54.52%. For the same molecule, the Activity result in the data set on RAW264.7 [2] is “Toxic”.

As to `CCCCCCCCCC(=O)O[C@@H]1[C@H](O[C@@H](C[C@H](OC(C)=O)/C(C)=C/CO[C@@H]([C@H](O)[C@H](O)CO)[C@H](O)CO)[C@](C)(O)CCC=C(C)C)O[C@H](CO)[C@@H](O)[C@@H]1O` [COSMOSPORASIDE D], in the data set on RAW264.7 [3], the inhibition result was “Dose-dependent effect”. Besides, the half-inhibitory concentration (IC50) in the data set with RAW264.7 [3] (RAW264.7, 24 h) came out at 66 µM. For the same molecule, in the data set on RAW264.7 [1], the Imax is reported as 71.7%.

In general, IC50 refers to the concentration that gives 50% inhibition.
